{
  "source": "patent US20220354807A1",
  "about": "“USE OF VALERIC ACID DERIVATIVE IN TREATMENT OF DOWN'S SYNDROME” (XIAMEN UNIVERSITY, priority 2019, published 2022)",
  "key": {"[1]": {"test_system": "primary microglia of Dp16 mice", "test": "Phagocytosis of fluorescent spheres by primary microglia", "type": "cell-based", "settings": "0.6 mM, fluorescent spheres added at 45th hour, staining at 48th hour", "description": "(§1) (A) Representative images of immunofluorescence labeled microglia marker Iba1, nuclear dye DAPI and fluorescent spheres, and the scale is 10 m. (B) Statistics of fluorescence intensity of fluorescent spheres in each Iba1-positive cell. Data represents the mean±standard error (SEM) and is statistically analyzed using One-way ANOVA. The ns represents no significant difference, i.e., p>0.05, ** represents p<0.01, **** represents p<0.0001.\n(§2) Newborn wild-type (WT) mice and Dp16 Down's model mice were placed on ice for 5 min, immersed in pre-cooled 75% alcohol for 10 s, decapitated and stripped of the skull, and the whole brain was removed and placed in pre-cooled HBSS. Under a stereoscope, the vascular membrane of brain tissue was stripped and cut into pieces with tweezers, repeatedly blown and beaten evenly with a 5 ml pipette tip, resuspended in precooled HBSS, and screened with a 100-mesh cell sieve to remove cell debris. […] The cells were resuspended and counted. […] Fluorescent spheres (10000×, Fluoresbrite® microsphere) were added at the 45th hour, and immunofluorescence staining was performed at the 48th hour to label microglia marker Iba1, nuclear dye DAPI and fluorescent spheres GFP, respectively, and then images were collected by laser confocal fluorescence microscopy."}, "[2]": {"test_system": "Down's model mice Ts65Dn", "test": "Synapse number by transmission electron microscopy", "type": "in vivo", "settings": "50 mg/(kg body weight/day) i.p., 21 days", "description": "(A) A representative image of a transmission electron micrograph. Arrows indicate synaptic structures, and the scale is 1 m. (B) Statistics result of the number of synapses. (C) Statistics result of the number of presynaptic vesicles. (D) statistical result of the length of postsynaptic density (PSD). (E) Statistical results of the area of postsynaptic density (PSD). Data represents the mean±standard error (SEM) and is statistically analyzed using One-way ANOVA, with 4 mice in each group, and 38-42 fields of view are statistically analyzed respectively. The ns represents no significant difference, i.e., p>0.05, * represents p<0.05.\n[…] The pieces were fixed with pre-cooled, fresh 2.5% glutaraldehyde fixative at 4° C. for more than 4 hours. At the end of fixation, the pieces were washed with PBS for 15 min for three times, then dehydrated, sectioned and prepared, and finally the images are collected by transmission electron microscopy."}, "[3]": {"test_system": "Down's model mice Ts65Dn", "test": "LTP recording in brain slices (Schaffer collateral pathway CA3 to CA1)", "type": "in vivo", "settings": "50 mg/(kg body weight/day) i.p., 21 days", "quoted_text": "After 21 days of continuous administration, electrophysiological studies on brain slice were performed. After anesthesia, the mice were incubated in an ice-cooled artificial cerebrospinal fluid (ACSF) with oxygen. After slicing, the brain slices were incubated in ACSF saturated with oxygen at 32° C. for 1 H. The recording electrode was placed in the radiation layer of CA1 area of Schaffer collateral pathway, and the stimulating electrode was placed in CA3 area. Stimulation intensity was 30% of the maximum value of fEPSP. After the stable baseline of fEPSP was recorded for 20 mins, LTP was induced by high frequency stimulation (HFS) (2 strings of stimulation, each of which contained 100 stimulation pulses, and was separated by 30 seconds) and recorded for 60 mins."}, "[4]": {"test_system": "Down's model mice Dp16", "test": "Iba1/CD68 immunofluorescence of hippocampus (microglial phagocytic function), Dp16", "type": "in vivo", "settings": "30 mg/(kg body weight/day) intragastric, 21 days", "description": "(A) A representative map of immunofluorescence labeled microglia marker Iba1 and lysosomal phagocytosis marker CD68 in the region of mice hippocampus, and the scale is 50 m. (B) The statistical results of the proportion of Iba1-positive and CD68-positive cells in the total Iba1-positive cells in the mice hippocampus. Data represents the mean±standard error (SEM) and is statistically analyzed using One-way ANOVA, with 8 mice in each group. The ns represents no significant difference, i.e., p>0.05, *** represents p<0.001, **** represents p<0.0001.\nThe microglia marker Iba1 and lysosomal phagocytosis markers CD68 were respectively labeled by immunofluorescence staining, and then the images were collected by laser confocal fluorescence microscopy."}, "[5]": {"test_system": "Alzheimer's disease mice", "settings": "by inhibiting the production of β-amyloid protein in the brain; cited from earlier work"}, "[6]": {"test_system": "Down's model mice Ts65Dn", "test": "Iba1 immunofluorescence of hippocampus (microgliosis), Ts65Dn", "type": "in vivo", "settings": "50 mg/(kg body weight/day) i.p., 21 days", "description": "(§3) (A) A representative map of immunofluorescence labeled microglia marker Iba1 in the DG region of mice hippocampus, and the scale is 75 m. (B) Statistical results of Iba1 positive cells in mice hippocampus. Data represents the mean±standard error (SEM) and is statistically analyzed using One-way ANOVA, with 4 mice in each group. ** represents p<0.01 and *** represents p<0.001.\n(§4) The microglia marker Iba1 and nuclear dye DAPI were respectively labeled by immunofluorescence staining, and then the images were collected by laser confocal fluorescence microscopy."}, "[7]": {"test_system": "Down's model mice Ts65Dn", "test": "Morris water maze test, Ts65Dn", "type": "in vivo", "settings": "50 mg/(kg body weight/day) i.p., 21 days", "description": "(§5) After 21 days of continuous administration, 3-month-old male mice were subjected to the Morris water maze test. (A) The latency for the mice to reach the platform during the 6-day water maze hidden platform training. (B) The average speed of swimming for the mice in the water maze of the platform test on day 7. (C) The latency for the mice to reach the area where the platform is located for the first time in the platform test on day 7. (D) The number of times for which the mice shuttled in the area where the platform is located in the platform test on day 7. (E) The swimming trajectory for the mice in the platform test on day 7. […] The ns represents no significant difference, i.e., p>0.05, ** represents p<0.01, *** represents p<0.001, **** represents p<0.0001.\n(§6) After continuous administration for 21 days, learning and memory related animal behavior test Morris water maze test was performed. Smart Video Tracking Software (Panlab, Harvard Apparatus) was used for data acquisition and analysis. The Morris water maze is a circular water tank with a diameter of 90 cm, a height of 35 cm, and a water depth of 30 cm. The water temperature was maintained at 22° C. Different markers were placed in the visual field of mice (pool wall), and four water entry points (E, S, W, N) were marked on the pool wall so that the maze was divided into four quadrants. A platform with a diameter of 6 cm was installed in the ES quadrant, so that the water surface was 1 cm higher than the platform. Mice were trained twice a day and put into the water from E, S, W and N entry points facing the wall of the pool, respectively. The movement trajectory of the mice was captured by a camera, and the time from entering the water to climbing up the platform was recorded, that is, Escape latency. The system set a test time of 60 seconds, and the system automatically shut down after the mice climbed on the platform and stay for 10 seconds. […] The positioning navigation experiment last for 6 days, and on day 7, the platform was removed. Mice were placed on the opposite side of the platform to the wall of the pool, and the space exploration experiment was carried out. The number of times of crossing in the original platform area (Target crossing) and the Latency of 1st entrance to target were recorded."}, "[8]": {"test": "Open-field test", "type": "in vivo, mice", "settings": "50 mg/(kg body weight/day) i.p., 21 days, open field 10 minutes", "description": "After 21 days of continuous administration, 3-month-old male mice were subjected to the behavioral open-field test. (A) Average movement speed of mice in the open field. (B) Total movement distance of mice in the open field. (C) Total time for the mice moving in the center of the open field.\nAfter continuous administration for 21 days, the animal behavior test was performed, in which the open-field test is a behavioral paradigm for evaluating the exercise ability and anxiety of experimental animals. In the open-field test, mice were placed in the center of the open field box (40 cm (L)×40 cm (W)×40 cm (H)), and Smart Video Tracking Software (Panlab, Harvard Apparatus) was used for data acquisition and analysis. Mice were allowed to explore freely in the open field for 10 minutes, and the Mean speed, Total distance and Time in center of mice were recorded."}, "[9]": {"test_system": "primary microglia of Dp16 mice", "test": "Phagocytosis of myelin debris by primary microglia", "type": "cell-based", "settings": "0.6 mM, myelin debris added at 45 hours, staining at 48 hours", "description": "as §1, with “myelin sheath debris (pHrodo is pre-labeled on myelin sheath),” for “fluorescent spheres,”, “20” for “10”, “myelin sheath debris” for “fluorescent spheres”, “p<0.01, *** represents p<0.001,” for “p<0.01,”\nas §2, with “Myelin debris (1.2 μg/L)” for “Fluorescent spheres (10000×, Fluoresbrite® microsphere)”, “45 hours,” for “the 45th hour,”, “48 hours” for “the 48th hour”, “myelin debris (pHrodo was labeled on the myelin sheath in advance),” for “fluorescent spheres GFP,”"}, "[10]": {"test": "Body weight after 21 days of administration", "type": "in vivo", "settings": "WT and Ts65Dn mice, 50 mg/(kg body weight/day) i.p.", "description": "All of the used mice were 3-month-old male mice administered continuously for 21 days, and then weighed.\nThe mice were administered continuously for 21 days and then weighed."}, "[11]": {"settings": "cited from earlier work"}, "[12]": {"settings": "50 mg/(kg body weight/day) i.p., 21 days, plasma"}, "[13]": {"test_system": "Down's model mice Dp16", "test": "Iba1 immunofluorescence of hippocampus (microgliosis), Dp16", "type": "in vivo", "settings": "30 mg/(kg body weight/day) intragastric, 21 days", "description": "as §3, with “100” for “75”, “8” for “4”, “****” for “**”, “p<0.0001.” for “p<0.01 and *** represents p<0.001.”\nas §4"}, "[14]": {"test_system": "Down's model mice Dp16", "test": "Morris water maze test, Dp16", "type": "in vivo", "settings": "30 mg/(kg body weight/day) intragastric, 21 days", "description": "as §5, with “p>0.05, * represents p<0.05,” for “p>0.05,”, “p<0.001.” for “p<0.001, **** represents p<0.0001.”\nas §6, with “The” for “The positioning navigation experiment last for 6 days, and on day 7, the platform was removed. Mice were placed on the opposite side of the platform to the wall of the pool, and the space exploration experiment was carried out. The”, “recorded. […]” for “recorded.”"}},
  "data": [
    {"smiles": "CCCC(CCC)C(=O)O", "note": "[VPA, sodium valproate]", "values": [
      {"measurement": "phagocytic function of fluorescent spheres by primary microglia", "setting": "[1]", "result": "significantly enhances"},
      {"measurement": "number of synapses in the hippocampal neurons", "setting": "[2]", "result": "significantly increases"},
      {"measurement": "Long term potentiation (LTP) of Schaffer collateral pathway from hippocampal CA3 to CA1", "setting": "[3]", "result": "significantly enhances"},
      {"measurement": "phagocytic function of hippocampal microglial cells (Iba1-positive and CD68-positive cells)", "setting": "[4]", "result": "significantly enhances"},
      {"measurement": "cognitive function of Alzheimer's disease mice", "setting": "[5]", "result": "reverse the cognitive function"},
      {"measurement": "number of microglia in the hippocampus (Iba1 positive cells)", "setting": "[6]", "result": "significantly reduces"},
      {"measurement": "Latency of 1st entrance to target, day 7", "setting": "[7]", "result": "reduces"},
      {"measurement": "latency to search the platform (Escape latency), first 6 days of training", "setting": "[7]", "result": "significantly reduce"},
      {"measurement": "number of times the mouse shuttled the area where the platform was located (Target crossing), day 7", "setting": "[7]", "result": "significantly increases"},
      {"measurement": "spatial learning and memory deficits", "setting": "[7]", "result": "significantly reverse"},
      {"measurement": "anxiety-related behaviors (Time in center)", "setting": "[8]", "result": "do not show anxiety-related behaviors"},
      {"measurement": "locomotor ability (Mean speed, Total distance)", "setting": "[8]", "result": "no significant effects"},
      {"measurement": "phagocytic function of myelin debris by primary microglia", "setting": "[9]", "result": "significantly enhances"},
      {"measurement": "body weight of mice", "setting": "[10]", "result": "does not affect"},
      {"measurement": "binding to plasma proteins in blood", "setting": "[11]; blood", "result": "mostly combined with plasma proteins"},
      {"measurement": "absorption by oral administration", "setting": "[11]; oral administration", "result": "absorbed rapidly and completely"},
      {"measurement": "toxic effects on mice (blood biochemical analysis)", "setting": "[12]", "result": "no significant toxic effects"},
      {"measurement": "number of microglia in the hippocampus (Iba1 positive cells)", "setting": "[13]", "result": "significantly reduces"},
      {"measurement": "Latency of 1st entrance to target, day 7", "setting": "[14]", "result": "reduces"},
      {"measurement": "number of times the mouse shuttled the area where the platform was located, day 7", "setting": "[14]", "result": "significantly increases"},
      {"measurement": "spatial learning and memory deficits", "setting": "[14]", "result": "significantly reverse"}
    ]}
  ]
}
